The record followed here is patent US7501281B2, “Compositions, methods and kits related to thrombin, Notch signaling and stamatogenesis and growth of stem cells” (Maine Medical Center Research Institute, priority 2003, dated 2009).

For the experiment, the target named is T1, human Jagged1 (Homo sapiens, UniProt P78504, A1171G).
T1 construct: full-length Jagged1 was in vitro transcribed and translated; made in house; host or cells: cell-free: T7-coupled reticulocyte lysate in vitro transcription/translation system (Promega)
T1 sequence (P78504 34-1218 A1171G): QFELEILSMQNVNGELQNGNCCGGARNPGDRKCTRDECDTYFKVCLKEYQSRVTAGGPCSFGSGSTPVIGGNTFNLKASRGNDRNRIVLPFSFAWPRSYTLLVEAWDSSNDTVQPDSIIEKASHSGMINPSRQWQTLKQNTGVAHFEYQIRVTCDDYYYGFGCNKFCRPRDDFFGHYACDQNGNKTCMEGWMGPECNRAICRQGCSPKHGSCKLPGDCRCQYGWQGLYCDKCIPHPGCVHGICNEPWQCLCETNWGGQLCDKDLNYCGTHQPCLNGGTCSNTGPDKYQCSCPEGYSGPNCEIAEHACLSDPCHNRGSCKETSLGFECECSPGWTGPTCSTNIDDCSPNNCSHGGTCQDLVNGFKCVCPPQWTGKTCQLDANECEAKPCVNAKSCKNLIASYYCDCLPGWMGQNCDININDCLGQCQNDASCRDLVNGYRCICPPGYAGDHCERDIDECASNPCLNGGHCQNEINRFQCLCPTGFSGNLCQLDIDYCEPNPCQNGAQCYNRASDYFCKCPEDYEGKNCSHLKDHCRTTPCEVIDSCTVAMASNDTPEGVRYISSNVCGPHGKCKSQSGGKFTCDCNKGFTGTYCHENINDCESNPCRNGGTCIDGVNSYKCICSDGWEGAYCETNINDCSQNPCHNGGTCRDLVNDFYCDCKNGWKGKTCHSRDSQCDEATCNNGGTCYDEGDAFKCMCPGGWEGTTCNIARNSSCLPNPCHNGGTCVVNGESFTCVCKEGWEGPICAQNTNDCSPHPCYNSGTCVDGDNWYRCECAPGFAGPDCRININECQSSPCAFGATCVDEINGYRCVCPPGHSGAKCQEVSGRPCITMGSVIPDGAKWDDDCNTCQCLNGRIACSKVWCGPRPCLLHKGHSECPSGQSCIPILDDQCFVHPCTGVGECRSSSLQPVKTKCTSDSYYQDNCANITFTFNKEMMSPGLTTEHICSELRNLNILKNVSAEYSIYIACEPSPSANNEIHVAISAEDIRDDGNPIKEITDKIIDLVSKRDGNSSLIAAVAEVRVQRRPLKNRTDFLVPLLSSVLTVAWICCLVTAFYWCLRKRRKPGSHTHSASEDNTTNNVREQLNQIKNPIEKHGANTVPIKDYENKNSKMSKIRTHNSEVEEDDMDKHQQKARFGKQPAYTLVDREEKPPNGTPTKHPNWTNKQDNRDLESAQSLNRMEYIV
The experiment is described as follows: Thrombin cleavage of in vitro translated Jagged1 and Edman microsequencing. The experiment is classed as biochemical. Here is the method:
A plasmid containing human Jagged1 (Zimrin et al., 1996, J. Biol. Chem. 271:32499-32502) was in vitro transcribed and in vitro translated in the presence of a (^35S)-Met/Cys protein-labeling mixture (Amersham) using the T7-coupled reticulocyte lysate system according to the manufacturer's instructions (Promega) in a total volume of 50 μl. After 60 minutes incubation at 30° C., 0.05% DTT was added, half of the reaction mixture incubated with 10 μg α-thrombin for 15 minutes at 37° C., and the reaction stopped by boiling in the presence of SDS-PAGE sample buffer. The samples were resolved by 12% SDS-PAGE, transferred to a nitrocellulose membrane, and analyzed by autoradiography. […] The products of each cycle were collected prior to resolution by HPLC, added to liquid scintillation fluid (Beckman) and the (^35S) samples quantitated by liquid scintillation spectroscopy (Beckman).
In an attempt to further define this pathway and the role that sJ1 might play in the regulation of cell proliferation, it was assessed if the Jagged1 translation product was susceptible to proteolytic cleavage by thrombin. […] The Jagged1 transcript was translated in vitro in the presence of (^35S)-Cys, resolved by SDS-PAGE, the 95 kDa fragment excised, subjected to automated Edman chemistry and the products of each cycle monitored by liquid scintillation spectroscopy. […]

With Thrombin, the Jagged1 cleavage site result (Edman microsequencing of the 95 kDa fragment) was “between residues R348 and G349”. In addition, the “cleavage products of the 134 kDa Jagged1 translation product” value (α-thrombin 15 minutes at 37° C.) was “cleavage of the full-length Jagged1 protein into 39 kDa and 95 kDa fragments”.
